Values belong to the molecule of their own block, whether it stands above or below them.
Experiments:
[1] = biological target: Epidermal growth factor receptor (Homo sapiens, UniProt P00533); assay type: functional
[2] = biological target: Vascular endothelial growth factor receptor 2 (Homo sapiens, UniProt P35968); assay type: functional
[3] = biological target: 5-hydroxytryptamine receptor 6 (Homo sapiens, UniProt P50406)
[4] = biological target: Prostaglandin G/H synthase 1 (Homo sapiens, UniProt P23219); assay type: functional
[5] = biological target: 5-hydroxytryptamine receptor 2B (Homo sapiens, UniProt P41595); assay type: functional, cell-based
D(3) dopamine receptor = D(3) dopamine receptor (Homo sapiens, UniProt P35462)
[6] = biological target: T1, 5-hydroxytryptamine receptor 1A (Homo sapiens, UniProt P08908)
T1 sequence (P08908 whole entry): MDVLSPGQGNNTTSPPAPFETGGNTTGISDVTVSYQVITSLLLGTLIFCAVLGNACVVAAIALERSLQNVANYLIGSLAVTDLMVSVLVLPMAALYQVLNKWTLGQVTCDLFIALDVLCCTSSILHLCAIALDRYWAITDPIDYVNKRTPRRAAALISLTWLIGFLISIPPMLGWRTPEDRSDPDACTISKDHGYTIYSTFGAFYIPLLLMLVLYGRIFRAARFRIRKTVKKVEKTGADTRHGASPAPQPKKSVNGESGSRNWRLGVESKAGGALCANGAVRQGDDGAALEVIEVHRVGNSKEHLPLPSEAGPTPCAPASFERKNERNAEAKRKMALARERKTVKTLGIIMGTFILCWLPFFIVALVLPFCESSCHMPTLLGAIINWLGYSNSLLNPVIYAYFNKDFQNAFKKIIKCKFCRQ

Androgen receptor = biological target: T2, Androgen receptor (Homo sapiens, UniProt P10275)
T2 sequence (P10275 whole entry): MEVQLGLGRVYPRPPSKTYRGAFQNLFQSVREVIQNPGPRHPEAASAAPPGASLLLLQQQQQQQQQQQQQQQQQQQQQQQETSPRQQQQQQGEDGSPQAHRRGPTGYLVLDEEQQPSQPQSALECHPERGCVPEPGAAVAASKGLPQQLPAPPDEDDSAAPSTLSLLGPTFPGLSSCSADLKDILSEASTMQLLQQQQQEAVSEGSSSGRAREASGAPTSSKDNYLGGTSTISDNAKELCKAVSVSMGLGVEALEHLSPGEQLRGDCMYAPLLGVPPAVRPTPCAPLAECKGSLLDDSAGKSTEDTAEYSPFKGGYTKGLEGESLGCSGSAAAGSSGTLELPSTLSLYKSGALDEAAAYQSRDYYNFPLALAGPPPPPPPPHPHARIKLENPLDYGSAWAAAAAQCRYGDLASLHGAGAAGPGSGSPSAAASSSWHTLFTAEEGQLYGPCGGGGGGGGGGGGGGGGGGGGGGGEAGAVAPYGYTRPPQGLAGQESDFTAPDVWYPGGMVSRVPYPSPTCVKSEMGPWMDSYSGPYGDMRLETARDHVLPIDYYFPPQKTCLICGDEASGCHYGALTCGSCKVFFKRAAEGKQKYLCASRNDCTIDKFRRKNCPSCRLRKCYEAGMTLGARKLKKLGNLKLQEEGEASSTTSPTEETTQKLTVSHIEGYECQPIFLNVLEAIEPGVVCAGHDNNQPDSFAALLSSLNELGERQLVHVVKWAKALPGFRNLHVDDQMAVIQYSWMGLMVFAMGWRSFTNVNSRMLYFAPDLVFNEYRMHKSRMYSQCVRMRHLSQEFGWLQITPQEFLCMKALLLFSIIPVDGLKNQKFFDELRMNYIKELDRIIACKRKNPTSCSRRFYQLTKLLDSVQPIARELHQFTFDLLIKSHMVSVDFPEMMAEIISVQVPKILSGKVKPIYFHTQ

Thromboxane A2 receptor = biological target: T3, Thromboxane A2 receptor (Homo sapiens, UniProt P21731); assay type: functional, cell-based
T3 sequence (P21731 whole entry): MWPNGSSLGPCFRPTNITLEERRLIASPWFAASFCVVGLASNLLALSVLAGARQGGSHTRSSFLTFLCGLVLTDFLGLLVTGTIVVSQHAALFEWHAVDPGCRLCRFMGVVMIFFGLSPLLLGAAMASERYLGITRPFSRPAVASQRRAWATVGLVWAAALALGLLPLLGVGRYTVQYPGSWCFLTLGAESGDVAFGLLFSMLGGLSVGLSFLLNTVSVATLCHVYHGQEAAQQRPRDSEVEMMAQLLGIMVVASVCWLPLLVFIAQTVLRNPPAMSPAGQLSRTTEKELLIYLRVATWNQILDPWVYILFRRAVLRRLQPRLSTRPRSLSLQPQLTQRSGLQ
Also: assay procedure not described here.

5-hydroxytryptamine receptor 6, sequence (P50406 whole entry): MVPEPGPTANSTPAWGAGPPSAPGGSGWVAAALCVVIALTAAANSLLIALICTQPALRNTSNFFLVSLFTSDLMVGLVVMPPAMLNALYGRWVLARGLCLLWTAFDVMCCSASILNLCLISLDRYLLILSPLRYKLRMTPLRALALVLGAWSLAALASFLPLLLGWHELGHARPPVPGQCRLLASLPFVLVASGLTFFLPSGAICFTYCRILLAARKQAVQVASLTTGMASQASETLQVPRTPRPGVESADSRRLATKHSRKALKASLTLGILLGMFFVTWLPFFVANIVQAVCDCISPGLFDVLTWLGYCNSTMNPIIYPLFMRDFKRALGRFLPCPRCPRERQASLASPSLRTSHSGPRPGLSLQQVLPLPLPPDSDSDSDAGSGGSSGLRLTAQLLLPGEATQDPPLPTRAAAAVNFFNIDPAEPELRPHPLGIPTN
Vascular endothelial growth factor receptor 2, sequence (P35968 whole entry): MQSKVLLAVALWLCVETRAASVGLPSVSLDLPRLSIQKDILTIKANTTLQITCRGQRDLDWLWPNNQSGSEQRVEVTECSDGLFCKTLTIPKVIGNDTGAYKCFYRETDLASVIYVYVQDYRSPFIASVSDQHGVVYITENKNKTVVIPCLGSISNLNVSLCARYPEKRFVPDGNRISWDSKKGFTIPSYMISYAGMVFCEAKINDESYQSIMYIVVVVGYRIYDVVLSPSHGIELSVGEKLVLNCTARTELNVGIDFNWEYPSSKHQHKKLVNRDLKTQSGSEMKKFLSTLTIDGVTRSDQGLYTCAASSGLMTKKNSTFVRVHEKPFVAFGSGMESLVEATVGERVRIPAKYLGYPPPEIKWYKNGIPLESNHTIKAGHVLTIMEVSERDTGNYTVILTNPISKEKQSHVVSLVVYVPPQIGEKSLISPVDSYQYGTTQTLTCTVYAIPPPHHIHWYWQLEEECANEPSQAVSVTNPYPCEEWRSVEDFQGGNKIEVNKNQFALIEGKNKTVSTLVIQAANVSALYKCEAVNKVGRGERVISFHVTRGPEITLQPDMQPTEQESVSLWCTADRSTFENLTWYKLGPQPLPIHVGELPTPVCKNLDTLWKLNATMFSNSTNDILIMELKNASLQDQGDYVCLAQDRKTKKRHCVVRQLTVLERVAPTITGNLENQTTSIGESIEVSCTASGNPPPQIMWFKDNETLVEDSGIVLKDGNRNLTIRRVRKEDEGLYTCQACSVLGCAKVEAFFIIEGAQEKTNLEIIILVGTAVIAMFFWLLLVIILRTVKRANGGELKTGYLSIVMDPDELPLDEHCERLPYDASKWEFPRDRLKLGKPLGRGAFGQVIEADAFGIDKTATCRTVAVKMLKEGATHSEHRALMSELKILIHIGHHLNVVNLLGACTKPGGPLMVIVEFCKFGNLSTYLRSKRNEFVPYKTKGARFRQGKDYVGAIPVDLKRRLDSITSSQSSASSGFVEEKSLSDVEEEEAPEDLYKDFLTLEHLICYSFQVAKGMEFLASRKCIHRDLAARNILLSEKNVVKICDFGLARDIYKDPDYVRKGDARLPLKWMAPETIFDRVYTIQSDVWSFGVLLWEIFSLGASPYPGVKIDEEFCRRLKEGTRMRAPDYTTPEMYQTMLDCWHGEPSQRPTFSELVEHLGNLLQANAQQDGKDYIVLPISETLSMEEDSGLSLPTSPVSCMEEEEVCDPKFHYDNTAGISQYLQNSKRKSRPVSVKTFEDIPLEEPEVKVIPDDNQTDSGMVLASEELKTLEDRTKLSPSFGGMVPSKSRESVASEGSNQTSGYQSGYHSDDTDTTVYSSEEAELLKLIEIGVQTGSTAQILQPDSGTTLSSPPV
Epidermal growth factor receptor, sequence (P00533 whole entry): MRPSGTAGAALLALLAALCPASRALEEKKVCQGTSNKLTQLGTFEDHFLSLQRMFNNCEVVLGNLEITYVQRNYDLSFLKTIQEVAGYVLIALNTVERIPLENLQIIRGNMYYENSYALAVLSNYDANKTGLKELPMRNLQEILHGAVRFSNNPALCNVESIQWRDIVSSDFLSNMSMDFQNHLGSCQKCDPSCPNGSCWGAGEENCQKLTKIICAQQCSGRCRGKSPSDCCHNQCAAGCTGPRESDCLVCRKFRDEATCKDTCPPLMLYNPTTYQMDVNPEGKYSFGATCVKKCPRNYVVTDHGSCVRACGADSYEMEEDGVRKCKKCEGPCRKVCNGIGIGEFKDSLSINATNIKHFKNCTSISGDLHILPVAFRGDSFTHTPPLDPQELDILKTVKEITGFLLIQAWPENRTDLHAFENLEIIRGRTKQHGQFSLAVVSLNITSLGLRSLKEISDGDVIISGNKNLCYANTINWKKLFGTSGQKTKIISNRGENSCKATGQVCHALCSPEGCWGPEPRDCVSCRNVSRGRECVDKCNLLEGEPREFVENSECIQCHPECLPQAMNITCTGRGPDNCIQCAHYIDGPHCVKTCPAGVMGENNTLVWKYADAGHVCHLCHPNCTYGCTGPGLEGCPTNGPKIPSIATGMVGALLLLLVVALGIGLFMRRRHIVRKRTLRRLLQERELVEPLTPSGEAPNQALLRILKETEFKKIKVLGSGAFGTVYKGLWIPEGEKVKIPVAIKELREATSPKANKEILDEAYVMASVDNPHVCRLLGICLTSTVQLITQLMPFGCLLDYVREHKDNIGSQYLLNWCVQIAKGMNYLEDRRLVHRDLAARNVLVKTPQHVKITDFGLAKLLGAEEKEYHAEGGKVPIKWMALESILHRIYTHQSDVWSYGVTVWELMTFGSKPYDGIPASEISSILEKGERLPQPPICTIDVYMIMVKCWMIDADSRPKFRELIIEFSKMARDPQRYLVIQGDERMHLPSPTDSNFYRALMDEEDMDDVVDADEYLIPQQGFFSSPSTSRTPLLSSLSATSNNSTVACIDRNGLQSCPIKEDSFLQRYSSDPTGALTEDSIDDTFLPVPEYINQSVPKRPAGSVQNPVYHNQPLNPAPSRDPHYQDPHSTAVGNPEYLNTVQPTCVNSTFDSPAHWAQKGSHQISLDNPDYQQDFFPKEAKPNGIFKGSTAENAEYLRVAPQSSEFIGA
5-hydroxytryptamine receptor 2B, sequence (P41595 whole entry): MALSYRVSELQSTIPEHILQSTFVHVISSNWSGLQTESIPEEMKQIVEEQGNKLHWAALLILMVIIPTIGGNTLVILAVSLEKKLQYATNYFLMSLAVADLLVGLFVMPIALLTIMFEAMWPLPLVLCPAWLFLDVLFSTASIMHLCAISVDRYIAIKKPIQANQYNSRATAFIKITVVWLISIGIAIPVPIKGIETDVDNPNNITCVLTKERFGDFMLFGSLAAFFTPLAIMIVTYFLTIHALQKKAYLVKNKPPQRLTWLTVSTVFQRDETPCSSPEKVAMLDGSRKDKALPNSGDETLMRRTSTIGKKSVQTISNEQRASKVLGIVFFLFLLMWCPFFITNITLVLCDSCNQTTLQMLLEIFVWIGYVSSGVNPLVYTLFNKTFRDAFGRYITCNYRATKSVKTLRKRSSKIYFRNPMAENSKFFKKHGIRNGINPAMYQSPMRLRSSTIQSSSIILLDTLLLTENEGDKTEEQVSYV
D(3) dopamine receptor, sequence (P35462 whole entry): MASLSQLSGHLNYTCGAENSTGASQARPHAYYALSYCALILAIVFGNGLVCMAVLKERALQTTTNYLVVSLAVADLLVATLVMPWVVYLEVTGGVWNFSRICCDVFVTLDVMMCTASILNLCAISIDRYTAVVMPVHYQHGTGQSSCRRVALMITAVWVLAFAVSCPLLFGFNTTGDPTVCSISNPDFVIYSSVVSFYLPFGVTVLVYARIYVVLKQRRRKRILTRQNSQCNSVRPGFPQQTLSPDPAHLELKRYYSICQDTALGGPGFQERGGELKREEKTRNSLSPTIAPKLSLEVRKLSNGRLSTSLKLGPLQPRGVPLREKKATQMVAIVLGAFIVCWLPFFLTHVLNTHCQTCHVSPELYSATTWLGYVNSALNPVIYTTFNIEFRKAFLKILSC
Prostaglandin G/H synthase 1, sequence (P23219 whole entry): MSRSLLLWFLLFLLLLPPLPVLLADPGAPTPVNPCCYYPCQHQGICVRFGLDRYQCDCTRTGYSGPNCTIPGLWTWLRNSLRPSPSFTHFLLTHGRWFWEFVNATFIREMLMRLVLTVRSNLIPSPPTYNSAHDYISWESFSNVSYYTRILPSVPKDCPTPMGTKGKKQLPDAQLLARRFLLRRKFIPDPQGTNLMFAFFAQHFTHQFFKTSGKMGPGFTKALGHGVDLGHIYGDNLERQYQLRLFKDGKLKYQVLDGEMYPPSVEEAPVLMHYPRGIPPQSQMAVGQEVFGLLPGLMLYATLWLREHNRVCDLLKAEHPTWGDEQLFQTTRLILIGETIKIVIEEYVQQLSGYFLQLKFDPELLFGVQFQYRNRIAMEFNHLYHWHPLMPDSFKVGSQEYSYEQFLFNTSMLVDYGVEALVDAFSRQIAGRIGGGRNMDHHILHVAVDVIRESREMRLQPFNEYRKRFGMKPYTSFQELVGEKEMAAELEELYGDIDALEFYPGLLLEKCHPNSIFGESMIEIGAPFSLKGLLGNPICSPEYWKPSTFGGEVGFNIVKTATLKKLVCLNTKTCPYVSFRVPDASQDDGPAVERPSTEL

AC50 [1]: > 30 µM | AC50 [2]: > 30 µM
Structure (SMILES): CC(CC1c2ccccc2CCc2ccccc21)CN(C)C (centres undefined) [BUTRIPTYLINE]

Structure (SMILES): Cc1c(OCC(F)(F)F)ccnc1C[S+]([O-])c1nc2ccccc2[nH]1 (centres undefined) [LANSOPRAZOLE]
AC50 [3]: > 10 µM

AC50 [4]: > 30 µM | AC50 [5]: > 30 µM | AC50 (D(3) dopamine receptor): 0.641 µM | AC50 [6]: 0.003 µM | AC50 (Androgen receptor): > 30 µM | AC50 (Thromboxane A2 receptor): 7.6 µM
Structure (SMILES): CO[C@]12C[C@@H](COC(=O)c3cncc(Br)c3)CN(C)[C@@H]1Cc1cn(C)c3cccc2c13 [NICERGOLINE]
